Reference: patent US20030064941A1, “Avermectin and praziquantel combination therapy” (priority 2001, published 2003)
Converted amounts (≈) assume the structure as drawn. “And” between values parts separate entries of the source, which are not always exact repeats. Equal entries are not always repeated. Where two headings read alike, the source gives them in different places.

Columns and labels:
Dipylidium spp = test: Topical co-formulation efficacy against natural tapeworm infections in cats (post mortem counts); type: in vivo; settings: single topical dose, 30 days after treatment
Description: (§1) […] Cats harbouring natural tapeworm infections were used, and randomized to treatment based on pre-trial infections. Animals were killed 30 days after treatment, and post mortem tapeworm counts were conducted.

Taenia spp = test: as above; type: in vivo; settings: Trial "B", single topical dose, 30 days after treatment
Description: as §1

[1] = for Concentration (mg per g) / Concentration (mg per ml): selamectin added at 120 mg per ml, 30° C.
Description: (§2) To achieve this a series of solutions of varying IPA/DPGMME ratio were prepared. To help minimize any solubility issues, which could arise due to the presence of selamectin in a formulation, a constant amount of selamectin was added to each solution. After achieving saturated solubility in these solutions and following filtration to remove excess undissolved praziquantel, the level of praziquantel (and selamectin) in solution was determined by HPLC.
(§3) A series of IPA/DPGMME mixtures were prepared in duplicate as outlined in Table 1. To these were added a fixed amount of selamectin to provide a constant concentration of 120 mg per ml, i.e., the maximum selamectin concentration found in Stronghold™. After preparation these solutions were placed at 30° C. and rolled continuously for 48 hours.
(§4) Praziquantel was analysed using an gradient HPLC method modified from that developed for selamectin. […] This same method was also used to check on the selamectin content in these same solutions.
(§5) The solubility of praziquantel and selamectin in the IPA/DPGMME solutions was calculated as both mg per g and mg per ml. The mass of a 1 ml solution taken for analysis was also measured so that an approximate density could be calculated.

Taenia taeniaeformis = settings: cats, experimental immature infections; cited from earlier work
[2] = cats, 3× dosage levels (oral, subcutaneous, intramuscular) during reproduction; cited from earlier work
physchem = settings: 30 °C, organic solvent or mixture, thermodynamic from solid, solubility (based on mean values)
Description: as §2, §3, §4, §5

[3] = Trial "A", selamectin 8 mg/kg and/or praziquantel 1 mg/kg
[4] = Trial "B", selamectin 8 mg/kg and/or praziquantel 1 mg/kg
[5] = selamectin 8 mg/kg and/or praziquantel 1 mg/kg
[6] = solution 2A: IPA 75 / DPGMME 25 % V/V
[7] = solutions 1A/1B: IPA 100 / DPGMME 0 % V/V
[8] = solutions 3A/3B: IPA 50 / DPGMME 50 % V/V
[9] = solutions 4A/4B: IPA 25 / DPGMME 75 % V/V
[10] = solutions 5A/5B: IPA 0 / DPGMME 100 % V/V
[11] = Trial "B", praziquantel 0.5 mg/kg, alone or with selamectin 8 mg/kg
[12] = praziquantel 0.5 mg/kg, alone or with selamectin 8 mg/kg

For `CO[C@H]1C[C@H](O[C@@H]2/C(C)=C/C[C@@H]3C[C@@H](C[C@]4(CC[C@H](C)[C@@H](C5CCCCC5)O4)O3)OC(=O)[C@@H]3C=C(C)/C(=N/O)[C@H]4OC/C(=C\C=C\[C@@H]2C)[C@]43O)O[C@@H](C)[C@@H]1O` [Selamectin, 5-oximino-22,23-dihydro-25-cyclohexylayermectin B1], the “% Efficacy (Dipylidium)” value (Dipylidium spp; [3]) was 40%, the “Mean Dipylidium post mortem count (n = 4 / gp)” value (Dipylidium spp; [3]) was 7.2 and the “Mean Dipylidium post mortem count (n = 5 / gp)” value (Dipylidium spp; [4]) was “No infection”. The “Mean Taenia post mortem count (n = 5 / gp)” value (Taenia spp; [5]) was “No infection”, the “solubility as the IPA concentration reduces” value ([1]; IPA/DPGMME solutions, all ratios) was no less than 100 mg/g and the “Concentration (mg per g)” value [1, 6] was 118 mg per g. For the same molecule, the “Concentration (mg per ml)” value [1, 6] was 103 mg per ml, the “Concentration (mg per g)” value [1, 7] was 123 mg per g and the “Concentration (mg per ml)” value [1, 7] was 103 mg per ml. The “Concentration (mg per g)” value [1, 8] was 113 mg per g, the “Concentration (mg per ml)” value [1, 8] was 103 mg per ml and the “Concentration (mg per g)” value [1, 9] was 113 mg per g and 108 mg per g. For the same molecule, the “Concentration (mg per ml)” value [1, 9] was 107 mg per ml and 103 mg per ml, the “Concentration (mg per g)” value [1, 10] was 104 mg per g and 103 mg per g and the “Concentration (mg per ml)” value [1, 10] was 103 mg per ml and 102 mg per ml.
With `O=C(C1CCCCC1)N1CC(=O)N2CCc3ccccc3C2C1` (stereo not shown) [Praziquantel, 2-(cyclohexylcarbonyl)-1,2,3,6,7-11b-hexahydro-4H-pyraz-ino[2,1-a]isoquinolin-4-one] the “% Efficacy (Dipylidium)” value (Dipylidium spp; [3]) was 74%, the “Mean Dipylidium post mortem count (n = 4 / gp)” value (Dipylidium spp; [3]) was 3.25 and the “% Efficacy (Dipylidium)” value (Dipylidium spp; [11]) was 16%. For the same molecule, the “Mean Dipylidium post mortem count (n = 5 / gp)” value (Dipylidium spp; [11]) was 7.6, the “% Efficacy (Dipylidium)” value (Dipylidium spp; [4]) was 89% and the “Mean Dipylidium post mortem count (n = 5 / gp)” value (Dipylidium spp; [4]) was 1. For the same molecule, the “% Efficacy (Taenia)” value (Taenia spp; [12]) was 100%, the “Mean Taenia post mortem count (n = 5 / gp)” value (Taenia spp; [12]) was 0 and the “% Efficacy (Taenia)” value (Taenia spp; [5]) was 72%. The “Mean Taenia post mortem count (n = 5 / gp)” value (Taenia spp; [5]) was 1.2, the “elimination of experimental T. taeniaeformis infections as young as seven (7) days” value (Taenia taeniaeformis) was 100% and the “effects on fertility, conception, fetal development or pregnancy” value [2] was “lack of effects on fertility, conception, fetal development or pregnancy”. For the same molecule, the solubility at 48 h (physchem) was 67 mg/mL (≈ 214 mM).
